Literature values in patent publication US20190224051A1, “ETNESS INDICATOR WITH HARDENERS AND CRYSTALLIZERS” (The Procter & Gamble Company, priority 2018, published 2019).

Conditions: Table 2, stabilizers

In the case of `O=P(O)(O)OP(=O)(O)O` [Pyrophosphoric Acid], the “pKa (1)” value is listed as 1.5, the “pKa (2)” value is listed as 2.4 and the “pKa (4)” value is listed as 9.2.
